Relative viability data for 18 cell lines are collected here from the supplement of paper PMC10307832.

Compound in the assay: C1COCCN1CC2=CC(=O)C(=CO2)OCCCCCSC3=C4C=CC(=CC4=NC=C3)C(F)(F)F [EHT 1864] + CS(=O)(=O)N1CCN(Cc2cc3nc(-c4cccc5[nH]ncc45)nc(N4CCOCC4)c3s2)CC1 [Pictilisib] (partner 1 µM)
In words: relative viability (nuclei count vs DMSO), 5 days (fraction); higher = more cells survive. Summed up:
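Nuclei were stained with Hoechst during a one-step fixation (final 0.05% Triton X-100, 1% formaldehyde, 1 ug/ml Hoechst) carried out 5 days after dosing, then counted on 4× images. The cells, lung cancer lines in 1536-well plates, had been dosed by pin tool the day after seeding with one drug alone or a fixed anchor-drug dose plus five library-drug doses (not always all listed) in √10 steps. Relative viability is the nuclei count in treated wells divided by that in vehicle wells, and each value is the median of duplicate plates.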

For 201T, the relative viability stood at 0.703 (first compound 0.04 µM); 0.676 (first compound 0.1265 µM); 0.7 (first compound 0.4 µM); 0.647 (first compound 1.265 µM); 0.607 (first compound 4 µM).

In the case of A549, the relative viability is 0.524 (first compound 0.1265 µM), 0.416 (first compound 0.4 µM), 0.411 (first compound 1.265 µM) and 0.461 (first compound 4 µM).

With A-427, the relative viability reads like this: (first compound 0.04 µM) 0.695; (first compound 0.1265 µM) 0.749; (first compound 0.4 µM) 0.688; (first compound 1.265 µM) 0.658; (first compound 4 µM) 0.607.

ABC-1: the relative viability (first compound 0.04 µM) was 0.935; the relative viability (first compound 0.1265 µM) was 0.713; the relative viability (first compound 0.4 µM) is 0.814; the relative viability (first compound 1.265 µM) is 0.824; the relative viability (first compound 4 µM) worked out at 0.73.

For the cell line BEN, the relative viability is, setting by setting: (first compound 0.04 µM) 0.523; (first compound 0.1265 µM) 0.532; (first compound 0.4 µM) 0.589; (first compound 1.265 µM) 0.576; (first compound 4 µM) 0.61.

Take CAL-12T: the relative viability runs as follows: (first compound 0.04 µM) 0.596; (first compound 0.1265 µM) 0.542; (first compound 0.4 µM) 0.446; (first compound 1.265 µM) 0.457; (first compound 4 µM) 0.574.

As for COR-L23, the relative viability was 0.716 (first compound 0.04 µM); 0.523 (first compound 0.1265 µM); 0.78 (first compound 0.4 µM); 0.692 (first compound 1.265 µM); 0.822 (first compound 4 µM).

For COR-L 105, the relative viability came out at 0.424 (first compound 0.04 µM); 0.461 (first compound 0.1265 µM); 0.462 (first compound 0.4 µM); 0.414 (first compound 1.265 µM); 0.378 (first compound 4 µM).

Consider Calu-6, for which the relative viability is, setting by setting: (first compound 0.04 µM) 0.899; (first compound 0.1265 µM) 0.866; (first compound 0.4 µM) 0.862; (first compound 1.265 µM) 0.902; (first compound 4 µM) 0.83.

With ChaGo-K-1, the relative viability is, setting by setting: (first compound 0.04 µM) 0.816; (first compound 0.1265 µM) 0.664; (first compound 0.4 µM) 0.736; (first compound 4 µM) 0.806.

As for EBC-1, the relative viability reads like this: (first compound 0.04 µM) 0.425; (first compound 0.1265 µM) 0.342; (first compound 0.4 µM) 0.385; (first compound 1.265 µM) 0.41; (first compound 4 µM) 0.426.

Regarding EKVX, the relative viability (first compound 0.04 µM) was 0.396; the relative viability (first compound 0.1265 µM) turned out to be 0.428; the relative viability (first compound 0.4 µM) came out at 0.496; the relative viability (first compound 1.265 µM) came out at 0.485; the relative viability (first compound 4 µM) came out at 0.437.

On to EMC-BAC-2, for which the relative viability (first compound 0.04 µM) turned out to be 0.525; the relative viability (first compound 0.1265 µM) came out at 0.551; the relative viability (first compound 0.4 µM) is 0.548; the relative viability (first compound 1.265 µM) was 0.517; the relative viability (first compound 4 µM) was determined as 0.517.

EPLC-272H: the relative viability was found to be 0.307 (first compound 0.04 µM); 0.275 (first compound 0.1265 µM); 0.446 (first compound 0.4 µM); 0.166 (first compound 1.265 µM); 0.278 (first compound 4 µM).

On to H3255, for which the relative viability reads like this: (first compound 0.04 µM) 0.405; (first compound 0.1265 µM) 0.421; (first compound 0.4 µM) 0.512; (first compound 1.265 µM) 0.479; (first compound 4 µM) 0.518.

Consider HARA, for which the relative viability amounted to 0.393 (first compound 0.04 µM); 0.359 (first compound 0.1265 µM); 0.531 (first compound 0.4 µM); 0.321 (first compound 1.265 µM); 0.446 (first compound 4 µM).

For HCC-15, the relative viability is, setting by setting: (first compound 0.04 µM) 0.737; (first compound 0.1265 µM) 0.577; (first compound 0.4 µM) 0.793; (first compound 1.265 µM) 0.656; (first compound 4 µM) 0.731.

As for HCC-44, the relative viability by setting is: (first compound 0.04 µM) 0.412; (first compound 0.1265 µM) 0.37; (first compound 0.4 µM) 0.604; (first compound 1.265 µM) 0.573; (first compound 4 µM) 0.694.
